Measured values as given in paper PMC6193938, “Characterization of a novel AICARFT inhibitor which potently elevates ZMP and has anti-tumor activity in murine models” (Scientific Reports, 2018).

Columns and labels:
MDA-MB-231met2 cells = test: MS detection of ZMP in cultured cells; format: cell-based, human; conditions: regular RPMI, calculated with 4 pL cell volume
Description: To mimic human plasma levels, low folate media is traditionally used in which the folate comes only from the defined fetal bovine serum. […] Because LSN3213128 would be dosed in mice on normal diet, cell line screening was performed under standard tissue culture conditions to identify cell lines sensitive to treatment under high folate conditions. In order to compare tissue culture values with tumor levels, an average 4 pL cell volume[36] was used to calculate cellular ZMP concentrations. In MDA-MB-231[…] cells using regular RPMI, the peak intracellular ZMP levels are about 770 μM while in the salvage deficient A9 cells ZMP is 6,500 μM. […] It is not surprising that in vivo in mice on standard chow where folate plasma levels are >10-fold lower than tissue culture that tumor ZMP levels are also lower. […] ZMP was detected in cultured cells via mass spec analysis. Cells were plated in 96-well plates at 25,000 cells per well in 100 μL with either high or low folate RPMI media and incubated overnight at 37 °C with 5% CO2. […] […] dUMP were detected using positive ion TurboIonSpray® multiple reaction monitoring mode and the data were processed with AB Sciex MultiQuantTM. Back-calculated ZMP concentrations were fit to a four-parameter logistic equation using ACTIVITYBASE 4.0 to determine EC50 values relative to the maximum observed metabolite levels.

FGFR3 = target: T1, FGFR3 (Homo sapiens, UniProt P22607); test: CEREP protein kinase assay; format: biochemical
T1 construct: purchased CEREP Panlabs (Eurofins)

ABL = target: T2, ABL (Homo sapiens, UniProt P00519); test: CEREP protein kinase assay; format: biochemical
T2 construct: purchased CEREP Panlabs (Eurofins)

NCI-H460 xenografts = test: Pharmacodynamic response of tumor metabolites, single PO dose, low folate chow; format: in vivo, mouse
From the text: Figure 4 Pharmacodynamic response of ZMP (purple), AICAR (blue), […] (green), dUMP (red), AMP (aqua) & GMP (orange) metabolites in tumors following a single PO dose of LSN3213128 in athymic nude mice.

TNK1 = target: T3, TNK1 (Homo sapiens, UniProt Q13470); test: CEREP protein kinase assay; format: biochemical
T3 construct: purchased CEREP Panlabs (Eurofins)
T3 sequence (Q13470 1-666): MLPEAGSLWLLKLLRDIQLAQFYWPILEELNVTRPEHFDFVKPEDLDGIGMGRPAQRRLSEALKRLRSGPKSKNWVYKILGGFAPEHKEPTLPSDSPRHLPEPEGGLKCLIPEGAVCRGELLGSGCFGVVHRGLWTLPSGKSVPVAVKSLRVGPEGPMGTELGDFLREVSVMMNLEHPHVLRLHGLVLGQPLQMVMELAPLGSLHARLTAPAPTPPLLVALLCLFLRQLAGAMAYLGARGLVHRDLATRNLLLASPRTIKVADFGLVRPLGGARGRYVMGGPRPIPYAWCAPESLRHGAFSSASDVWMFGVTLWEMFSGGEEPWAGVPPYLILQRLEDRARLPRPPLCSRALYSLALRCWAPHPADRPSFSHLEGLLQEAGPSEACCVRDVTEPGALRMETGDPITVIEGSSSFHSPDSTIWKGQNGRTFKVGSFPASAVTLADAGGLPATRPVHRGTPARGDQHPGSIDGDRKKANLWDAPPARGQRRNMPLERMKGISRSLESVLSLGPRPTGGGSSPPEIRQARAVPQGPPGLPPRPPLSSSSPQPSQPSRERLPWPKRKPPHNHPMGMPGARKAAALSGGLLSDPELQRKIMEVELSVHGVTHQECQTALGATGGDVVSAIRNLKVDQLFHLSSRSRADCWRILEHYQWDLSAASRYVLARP

DRAK1 = target: T4, DRAK1 (Homo sapiens, UniProt Q9UEE5); test: CEREP protein kinase assay; format: biochemical
T4 construct: purchased CEREP Panlabs (Eurofins)
T4 sequence (Q9UEE5 1-414): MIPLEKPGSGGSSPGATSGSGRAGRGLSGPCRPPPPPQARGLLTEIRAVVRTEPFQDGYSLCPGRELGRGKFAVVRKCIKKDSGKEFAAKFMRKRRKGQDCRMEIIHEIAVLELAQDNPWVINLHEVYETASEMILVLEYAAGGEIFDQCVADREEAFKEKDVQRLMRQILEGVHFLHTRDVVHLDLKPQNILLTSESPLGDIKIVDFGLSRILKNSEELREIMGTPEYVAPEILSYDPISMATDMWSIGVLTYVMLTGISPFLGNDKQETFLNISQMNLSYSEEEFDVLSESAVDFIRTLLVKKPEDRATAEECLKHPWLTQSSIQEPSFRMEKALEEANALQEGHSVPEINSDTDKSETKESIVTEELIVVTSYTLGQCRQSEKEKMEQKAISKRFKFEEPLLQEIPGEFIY

T2 sequence (P00519 whole entry): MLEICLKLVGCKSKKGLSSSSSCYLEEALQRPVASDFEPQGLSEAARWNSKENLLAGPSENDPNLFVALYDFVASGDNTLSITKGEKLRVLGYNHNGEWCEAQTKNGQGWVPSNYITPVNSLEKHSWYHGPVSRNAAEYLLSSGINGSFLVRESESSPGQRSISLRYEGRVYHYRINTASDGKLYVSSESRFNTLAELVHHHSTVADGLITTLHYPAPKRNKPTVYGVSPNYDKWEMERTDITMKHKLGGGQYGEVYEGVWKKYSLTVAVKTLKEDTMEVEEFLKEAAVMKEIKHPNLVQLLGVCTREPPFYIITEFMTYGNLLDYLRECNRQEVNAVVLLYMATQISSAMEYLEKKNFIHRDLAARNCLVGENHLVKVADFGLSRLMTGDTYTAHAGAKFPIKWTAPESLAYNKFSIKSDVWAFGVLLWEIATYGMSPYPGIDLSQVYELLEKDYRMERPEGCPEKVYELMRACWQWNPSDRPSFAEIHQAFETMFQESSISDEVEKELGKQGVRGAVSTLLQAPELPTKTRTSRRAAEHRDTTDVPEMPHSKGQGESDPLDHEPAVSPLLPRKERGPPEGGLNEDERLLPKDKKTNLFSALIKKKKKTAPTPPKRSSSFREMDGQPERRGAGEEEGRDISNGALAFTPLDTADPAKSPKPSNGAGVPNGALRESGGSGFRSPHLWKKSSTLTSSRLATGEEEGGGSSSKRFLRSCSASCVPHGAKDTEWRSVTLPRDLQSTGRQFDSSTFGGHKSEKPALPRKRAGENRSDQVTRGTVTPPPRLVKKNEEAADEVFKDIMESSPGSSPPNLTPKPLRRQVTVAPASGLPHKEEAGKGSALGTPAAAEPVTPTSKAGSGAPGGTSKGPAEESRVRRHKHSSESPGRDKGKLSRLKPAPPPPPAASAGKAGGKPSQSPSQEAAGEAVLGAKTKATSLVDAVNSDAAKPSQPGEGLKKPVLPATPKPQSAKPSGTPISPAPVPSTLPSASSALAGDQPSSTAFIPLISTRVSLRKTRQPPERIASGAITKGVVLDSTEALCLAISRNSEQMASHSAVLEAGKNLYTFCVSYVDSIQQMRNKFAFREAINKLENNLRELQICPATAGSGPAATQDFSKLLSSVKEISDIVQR
T1 sequence (P22607 23-806): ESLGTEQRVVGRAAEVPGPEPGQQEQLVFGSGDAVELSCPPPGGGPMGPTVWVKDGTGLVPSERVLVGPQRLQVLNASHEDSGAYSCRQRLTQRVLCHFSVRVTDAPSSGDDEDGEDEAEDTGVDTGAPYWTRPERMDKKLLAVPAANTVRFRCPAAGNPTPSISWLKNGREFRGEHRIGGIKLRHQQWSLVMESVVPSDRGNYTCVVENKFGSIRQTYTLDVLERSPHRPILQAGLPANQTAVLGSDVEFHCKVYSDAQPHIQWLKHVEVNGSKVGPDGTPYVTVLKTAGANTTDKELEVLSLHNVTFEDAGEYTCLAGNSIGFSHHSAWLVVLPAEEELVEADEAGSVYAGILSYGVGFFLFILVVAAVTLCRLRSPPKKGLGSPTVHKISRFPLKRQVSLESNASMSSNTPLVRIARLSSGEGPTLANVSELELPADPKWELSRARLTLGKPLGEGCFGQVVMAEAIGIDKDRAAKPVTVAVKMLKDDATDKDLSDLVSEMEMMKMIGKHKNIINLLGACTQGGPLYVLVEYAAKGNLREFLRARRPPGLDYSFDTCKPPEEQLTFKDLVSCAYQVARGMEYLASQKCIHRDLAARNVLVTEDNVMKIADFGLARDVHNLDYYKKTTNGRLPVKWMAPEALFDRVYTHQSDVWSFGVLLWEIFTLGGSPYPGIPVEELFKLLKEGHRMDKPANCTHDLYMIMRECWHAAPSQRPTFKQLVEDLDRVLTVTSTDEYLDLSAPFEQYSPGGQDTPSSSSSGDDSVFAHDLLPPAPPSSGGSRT

In the case of `O=c1[nH]ccc2cc(F)c(NS(=O)(=O)c3ccc(N4CC[C@@H](O)C4)s3)cc12` [LSN3213128, N-(6-Fluoro-1-oxo-1,2-dihydroisoquinolin-7-yl)-5-[(3R)-3-hydroxypyrrolidin-1-yl]thiophene-2-sulfonamide], the “peak intracellular ZMP levels” value (MDA-MB-231met2 cells) is reported as “about 770 μM”, the inhibition at 0.2 µM (FGFR3; @ 0.2 uM) is reported as 3.62% and the inhibition at 2 µM (FGFR3; @ 2 uM) is reported as 13.2%. The inhibition at 20 µM (FGFR3; @ 20 uM) was 47%, the inhibition at 0.2 µM (ABL; @ 0.2 uM) was -13.8% and the inhibition at 2 µM (ABL; @ 2 uM) was -14.6%. The inhibition at 20 µM (ABL; @ 20 uM) was -0.27%, the “tumor dUMP levels” value (NCI-H460 xenografts; low folate chow, 4 h, up to 60 mg/kg) was “unchanged” and the “dose at which tumor ZMP response appears to saturate” value (NCI-H460 xenografts; nude mice on low folate chow, 4 h post PO dose) was 1 mg/kg. For the same compound, the inhibition at 0.2 µM (TNK1; @ 0.2 uM) was -11.5%, the inhibition at 2 µM (TNK1; @ 2 uM) was -5.26% and the inhibition at 20 µM (TNK1; @ 20 uM) was -3.7%. It also gave an inhibition at 0.2 µM (DRAK1; @ 0.2 uM) of 4.41%, an inhibition at 2 µM (DRAK1; @ 2 uM) of 13.9% and an inhibition at 20 µM (DRAK1; @ 20 uM) of 20.3%.
